These results are taken from patent US5919768A, “Di- and trivalent small molecule selectin inhibitors” (Texas Biotechnology Corporation, priority 1998, dated 1999).

For one assay, the target named is T1, E-selectin (Homo sapiens, UniProt P16581).
T1 construct: amino terminal lectin, EGF, and complement regulatory-like repeats (CR) 1 and 2; made in house; host or cells: SF21 insect cells, baculovirus (BakPAK)
T1 sequence (P16581 22-301): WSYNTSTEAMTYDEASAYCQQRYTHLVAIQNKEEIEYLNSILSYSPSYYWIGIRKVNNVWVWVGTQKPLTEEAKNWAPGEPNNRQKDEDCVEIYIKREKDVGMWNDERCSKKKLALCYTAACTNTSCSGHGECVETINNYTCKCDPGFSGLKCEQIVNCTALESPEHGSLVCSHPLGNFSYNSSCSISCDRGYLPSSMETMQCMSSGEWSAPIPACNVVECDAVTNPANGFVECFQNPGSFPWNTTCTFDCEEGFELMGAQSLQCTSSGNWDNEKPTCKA
Description: Cell-protein assay: inhibition of binding of HL60 cells (expressing sialyl-Lewis^x) to E-selectin. Conditions: for IC50: HL60 cell binding to selectin fusion protein on magnetic beads. On the procedure: (§1) Compounds were assayed for their ability to inhibit the binding of E-, P-, and/or L-selectin to sialyl-Lewis^x.
(§2) The E-selectin binding assays involved assessing the ability of HL60 cells that express sialyl-Lewis^x and Lewis^x to purified E-selectin, P-selectin and L-selectin recombinant proteins (cell-protein assay). A similar binding assay utilizing purified glycolipids and purified L-selectin recombinant protein (glycolipid-protein) was used to assess L-selectin binding.
(§3) All selectin fusion cassettes were generated by PCR from the E-selectin cDNA purchased from R&D Systems (Minneapolis, Minn.), and from the P-selectin and L-selectin cDNAs that were PCR cloned from total RNA extracted from human placenta. The mouse IgG cDNA was cloned from PCR amplified cDNA generated from RNA extracted from the hybridoma cell line 402C10. All fusion cassettes were expressed from baculovirus vectors using the BakPAK method and SF21 cells purchased from Clonetech.
(§4) Recombinant fusion proteins were purified from baculovirus infected culture supernatants by immunoprecipitation using Dynal™ goat anti-mouse IgG coated magnetic beads. Mock beads were generated from uninfected SF21 culture supernatants.
(§5) HL60 cells (10^7 cells) were fluorescently labeled with calcein AMC-3099 (Molecular Probes) in RPMI 1640 with 10% fetal calf serum (FCS). The magnetic beads (7 μl, 4×10^6 beads/ml) were incubated in duplicate wells of a flexible 96 well microtiter plate along with 7 μl of compound at various concentrations and 7 μl of calcein-labeled HL60 cells. The plates were incubated for ten minutes at room temperature. The plate was then placed on a magnetic separator and incubated for 2 more minutes. While the assay plate remained on the separator, unbound HL60 cells were removed and the wells were washed twice with phosphate buffered saline (PBS) to remove any remaining unbound cells. The HL60 cells remaining bound to the beads were inspected by microscopy and then lysed by adding […] of a 1% solution of NP40 in PBS. Binding was quantitated fluorimetrically using a Millipore Cytofluor 2350 fluorimeter.

For another assay, the target named is T2, P-selectin (Homo sapiens, UniProt P16109).
T2 construct: amino terminal lectin, EGF, and complement regulatory-like repeats (CR) 1 and 2; made in house; host or cells: SF21 insect cells, baculovirus (BakPAK)
T2 sequence (P16109 42-321): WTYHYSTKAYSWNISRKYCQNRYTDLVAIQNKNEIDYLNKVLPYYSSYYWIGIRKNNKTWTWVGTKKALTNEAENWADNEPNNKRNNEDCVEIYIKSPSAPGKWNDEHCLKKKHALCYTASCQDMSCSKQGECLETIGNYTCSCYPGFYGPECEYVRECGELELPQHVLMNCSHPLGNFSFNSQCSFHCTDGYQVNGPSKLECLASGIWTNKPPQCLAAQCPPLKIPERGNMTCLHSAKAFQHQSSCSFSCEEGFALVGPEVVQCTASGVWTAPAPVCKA
Description: Cell-protein assay: inhibition of binding of HL60 cells (expressing sialyl-Lewis^x) to P-selectin. The conditions noted are these: HL60 cell binding to selectin fusion protein on magnetic beads. On the procedure: as §1, §2, §3, §4, §5

For a further assay, the target named is T3, L-selectin (Homo sapiens, UniProt P14151).
T3 construct: amino terminal lectin, EGF, and complement regulatory-like repeats (CR) 1 and 2; made in house; host or cells: SF21 insect cells, baculovirus (BakPAK)
T3 sequence (P14151 39-318): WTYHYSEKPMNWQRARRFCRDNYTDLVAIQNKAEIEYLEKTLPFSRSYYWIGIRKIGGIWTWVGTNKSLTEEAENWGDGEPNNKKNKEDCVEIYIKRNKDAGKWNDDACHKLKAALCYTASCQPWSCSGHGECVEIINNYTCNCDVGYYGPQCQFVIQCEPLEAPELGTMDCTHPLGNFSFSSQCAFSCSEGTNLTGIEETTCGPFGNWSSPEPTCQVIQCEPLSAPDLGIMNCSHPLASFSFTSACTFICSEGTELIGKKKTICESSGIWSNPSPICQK
Description: Selectin binding assay: inhibition of binding of L-selectin to sialyl-Lewis^x (cell-protein; glycolipid-protein assay also mentioned). Conditions: for IC50: in vitro selectin assay. As to the method: as §1, §2, §3, §4, §5

The structures appear in SMILES notation.

A word on the IC50: it is the point on the concentration scale where inhibition reaches its midpoint.

For the compound `O=C(O)Cc1cccc(-c2cc(Cc3cccc(Cc4ccc(O[C@H]5O[C@H](CO)[C@@H](O)[C@H](O)[C@@H]5O)c(-c5cccc(CC(=O)O)c5)c4)c3)ccc2O[C@H]2O[C@H](CO)[C@@H](O)[C@H](O)[C@@H]2O)c1` [B-m], the inhibition at 1000 µM on E-selectin (at 1 mM, read-out: E-Selectin % inhib.) is 0%. Moreover, the IC50 at P-selectin is 220 µM; at L-selectin, 3000 µM.

On to `O=C(O)Cc1cccc(-c2cc(Cc3ccc(Cc4ccc(O[C@H]5O[C@H](CO)[C@@H](O)[C@H](O)[C@@H]5O)c(-c5cccc(CC(=O)O)c5)c4)cc3)ccc2O[C@H]2O[C@H](CO)[C@@H](O)[C@H](O)[C@@H]2O)c1` [B-p], for which the IC50 turned out to be 2000 µM on E-selectin, 2000 µM on P-selectin and 3000 µM on L-selectin.

`O=C(O)Cc1cccc(-c2cc(Cc3ccc(Oc4ccc(Cc5ccc(O[C@H]6O[C@H](CO)[C@@H](O)[C@H](O)[C@@H]6O)c(-c6cccc(CC(=O)O)c6)c5)cc4)cc3)ccc2O[C@H]2O[C@H](CO)[C@@H](O)[C@H](O)[C@@H]2O)c1` [C] displayed an IC50 on P-selectin of 700 µM. For the same compound, the inhibition at 2000 µM on L-selectin (at 2 mM, read-out: L-Selectin % inhib.) was determined as 0%.

`O=C(O)Cc1cccc(-c2cc(CCCCc3ccc(O[C@H]4O[C@H](CO)[C@@H](O)[C@H](O)[C@@H]4O)c(-c4cccc(CC(=O)O)c4)c3)ccc2O[C@H]2O[C@H](CO)[C@@H](O)[C@H](O)[C@@H]2O)c1` [Compound A-4, 1,4-Bis-[3-(3-carboxymethylphenyl)-4-(2-α-D-mannopyranosyloxy)phenyl]butane] registered an IC50 on L-selectin of 2000 µM.

For the compound `O=C(O)Cc1cccc(-c2cc(CCCCCc3ccc(O[C@H]4O[C@H](CO)[C@@H](O)[C@H](O)[C@@H]4O)c(-c4cccc(CC(=O)O)c4)c3)ccc2O[C@H]2O[C@H](CO)[C@@H](O)[C@H](O)[C@@H]2O)c1` [Compound A-5], the IC50 on E-selectin was found to be 400 µM; on P-selectin it was 300 µM; at L-selectin, 300 µM.

`O=C(O)Cc1cccc(-c2cc(CCCCCCCc3ccc(O[C@H]4O[C@H](CO)[C@@H](O)[C@H](O)[C@@H]4O)c(-c4cccc(CC(=O)O)c4)c3)ccc2O[C@H]2O[C@H](CO)[C@@H](O)[C@H](O)[C@@H]2O)c1` [Compound A-7]: the IC50 on E-selectin is 500 µM; at P-selectin it was 400 µM.

Regarding `O=C(O)Cc1cccc(-c2cc(CCCCCCCCCc3ccc(O[C@H]4O[C@H](CO)[C@@H](O)[C@H](O)[C@@H]4O)c(-c4cccc(CC(=O)O)c4)c3)ccc2O[C@H]2O[C@H](CO)[C@@H](O)[C@H](O)[C@@H]2O)c1` [Compound A-9], the IC50 on E-selectin and at P-selectin was 1000 µM each time.

Regarding `O=C(O)Cc1cccc(-c2cc(CCCSCCCSCCCc3ccc(O[C@H]4O[C@H](CO)[C@@H](O)[C@H](O)[C@@H]4O)c(-c4cccc(CC(=O)O)c4)c3)ccc2O[C@H]2O[C@H](CO)[C@@H](O)[C@H](O)[C@@H]2O)c1` [D], at E-selectin (at 2 mM, read-out: E-Selectin % inhib.), the inhibition at 2000 µM came to 29%. At P-selectin, this compound yielded an IC50 of 500 µM.

`O=C(O)COc1cccc(-c2cc(CCCCCCc3ccc(O[C@H]4O[C@H](CO)[C@@H](O)[C@H](O)[C@@H]4O)c(-c4cccc(OCC(=O)O)c4)c3)ccc2O[C@H]2O[C@H](CO)[C@@H](O)[C@H](O)[C@@H]2O)c1` [E]: the half-maximal inhibitory concentration (IC50) at E-selectin was 3270 µM; at P-selectin it was 540 µM; on L-selectin, 1400 µM.

As to `O=C(O)Cc1cccc(-c2cc(C(=O)CCCCC(=O)c3ccc(O[C@H]4O[C@H](CO)[C@@H](O)[C@H](O)[C@@H]4O)c(-c4cccc(CC(=O)O)c4)c3)ccc2O[C@H]2O[C@H](CO)[C@@H](O)[C@H](O)[C@@H]2O)c1` [F], the IC50 on E-selectin is 1000 µM; at P-selectin, 1000 µM; at L-selectin, 3000 µM.

With `O=C(O)Cc1cccc(-c2cc(CCCC(=O)N3CCC(CCCC4CCN(C(=O)CCCc5ccc(O[C@H]6O[C@H](CO)[C@@H](O)[C@H](O)[C@@H]6O)c(-c6cccc(CC(=O)O)c6)c5)CC4)CC3)ccc2O[C@H]2O[C@H](CO)[C@@H](O)[C@H](O)[C@@H]2O)c1` [G], the IC50 at P-selectin was determined as 1000 µM. Further, the inhibition at 3000 µM at L-selectin (at 3 mM, read-out: L-Selectin % inhib.) was found to be 0%.

For the compound `O=C(O)Cc1cccc(-c2cc(Cc3cc(Cc4ccc(O[C@H]5O[C@H](CO)[C@@H](O)[C@H](O)[C@@H]5O)c(-c5cccc(CC(=O)O)c5)c4)cc(Cc4ccc(O[C@H]5O[C@H](CO)[C@@H](O)[C@H](O)[C@@H]5O)c(-c5cccc(CC(=O)O)c5)c4)c3)ccc2O[C@H]2O[C@H](CO)[C@@H](O)[C@H](O)[C@@H]2O)c1` [H], the IC50 at E-selectin came out at 700 µM; at P-selectin it was 200 µM; at L-selectin, 500 µM.

On to `O=C(O)Cc1cccc(-c2cc(C(=O)CSCc3cc(CSCC(=O)c4ccc(O[C@H]5O[C@H](CO)[C@@H](O)[C@H](O)[C@@H]5O)c(-c5cccc(CC(=O)O)c5)c4)cc(CSCC(=O)c4ccc(O[C@H]5O[C@H](CO)[C@@H](O)[C@H](O)[C@@H]5O)c(-c5cccc(CC(=O)O)c5)c4)c3)ccc2O[C@H]2O[C@H](CO)[C@@H](O)[C@H](O)[C@@H]2O)c1` [J], for which the IC50 is 4000 µM at E-selectin and 2000 µM on L-selectin.
